# Like-named read-outs stand apart in the source and are kept apart here.
# Experiments:
# [1] = molecular target: T1, AhR-ARNT heterodimer (Homo sapiens, UniProt P35869); experiment: Protein co-immunoprecipitation, formation of AhR-ARNT heterodimer in LS180 cells; format: cell-based; settings: 90 min
# T1 construct: 0.1% V/V) for 90 min at 37 °C; host or cells: LS180 cells
# Description: Figure 6 MICTs induce a formation of the AhR-ARNT heterodimer. Intestinal LS180 cells were incubated with TCDD, tested MICT, and vehicle (DMSO; 0.1% V/V) for 90 min. Protein co-immunoprecipitation of ARNT was carried out, as described in the Methods section. The representative immunoblots of immuno-precipitated protein eluates and total cell lysates are shown. The experiments were performed in two consecutive cell passages.
# Intestinal LS180 cells were incubated with TCDD, tested MICT, and vehicle (DMSO; 0.1% V/V) for 90 min at 37 °C. The Pierce™ Co-Immunoprecipitation Kit (Thermo Fisher Scientific) with covalently coupled AhR antibody (mouse monoclonal, sc-133088, A-3, Santa Cruz Biotechnology) was used. Eluted protein complexes and total parental lysates were resolved on SDS-PAGE gels followed by Western Blot analysis and immuno-detection with ARNT-1 antibody (mouse monoclonal, sc-17812, G-3, Santa Cruz Biotechnology). Chemiluminescent detection was performed using horseradish peroxidase-conjugated anti-mouse secondary antibody (7076S, Cell Signaling Technology) and WesternSure® PREMIUM Chemiluminescent Substrate (LI-COR Biotechnology) by C-DiGit® Blot Scanner (LI-COR Biotechnology).
# [2] = molecular target: T2, murine AhR (Mus musculus, UniProt P30561); experiment: Competitive radio-ligand ([3H]-TCDD) AhR binding assay, cytosols from Hepa1c1c7 cells; settings: Table 1 summary class
# T2 sequence (P30561 10-805): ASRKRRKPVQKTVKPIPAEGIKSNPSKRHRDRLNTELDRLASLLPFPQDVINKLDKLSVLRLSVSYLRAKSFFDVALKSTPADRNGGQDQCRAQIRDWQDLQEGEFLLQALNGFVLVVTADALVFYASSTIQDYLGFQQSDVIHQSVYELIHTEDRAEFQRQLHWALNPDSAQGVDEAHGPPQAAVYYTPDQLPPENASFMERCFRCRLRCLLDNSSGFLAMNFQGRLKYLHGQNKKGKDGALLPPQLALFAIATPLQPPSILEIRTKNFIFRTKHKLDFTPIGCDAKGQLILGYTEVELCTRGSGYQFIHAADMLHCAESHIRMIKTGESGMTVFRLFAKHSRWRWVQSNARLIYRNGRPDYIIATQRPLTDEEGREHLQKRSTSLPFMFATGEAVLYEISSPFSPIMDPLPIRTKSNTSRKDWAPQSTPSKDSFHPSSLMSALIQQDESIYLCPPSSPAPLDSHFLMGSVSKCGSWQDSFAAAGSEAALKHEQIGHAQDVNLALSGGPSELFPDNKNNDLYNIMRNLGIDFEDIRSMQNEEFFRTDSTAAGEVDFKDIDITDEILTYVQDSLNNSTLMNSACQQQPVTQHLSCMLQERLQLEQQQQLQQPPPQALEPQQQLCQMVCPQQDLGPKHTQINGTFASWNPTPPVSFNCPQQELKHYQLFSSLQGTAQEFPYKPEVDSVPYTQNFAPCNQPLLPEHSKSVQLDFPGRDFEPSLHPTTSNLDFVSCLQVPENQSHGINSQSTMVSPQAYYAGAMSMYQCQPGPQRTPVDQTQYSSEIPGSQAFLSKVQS
# Description: Figure 2 Competitive radio-ligand binding assay. Cytosols from Hepa1c1c7 cells were incubated with vehicle (negative control; 0.1% V/V), FICZ (positive control; 0.01 nM – 10 nM), TCDF (non-specific binding; 200 nM) and increasing doses of MICT in the presence of 2 nM [^3H]-TCDD. The specific binding of [^3H]-TCDD was determined as a difference between total and non-specific (200 nM; TCDF) reactions (value for vehicle DMSO; 0.1% V/V = corresponds to specific binding of [^3H]-TCDD = 100%). At least two independent experiments were performed and the incubations were done in triplicates in each experiment (technical replicates).
# Ligand binding assay was performed using cytosolic protein extracts from murine Hepa1c1c7 cells as described. Briefly, aliquots of protein (2 mg/mL) were incubated at the room temperature for two (2) h with 2 nM [^3H]-TCDD in the presence of DMSO (vehicle control), FICZ (positive control), 200 nM TCDF (non-specific binding) or increasing concentration of MICT. After the incubation, the hydroxyapatite slurry was added to the samples and the suspension was incubated on ice and washed three times with HEGT buffer. The hydroxyapatite pellet was re-suspended in scintillation cocktail, and radioactivity was determined in a liquid scintillation counter. The specific binding of [^3H]-TCDD was determined by subtracting the radioactivity of non-specific reaction (TCDF) from total radioactivity. The values of IC50 were calculated where appropriate.
# [3] = test system: CYP1A1 mRNA; experiment: CYP1A1 mRNA (qRT-PCR) in intestinal LS180 cells; format: cell-based, human
# Description: Figure 4 Effects of MICT on the induction of CYP1A1 mRNA in human hepatic and intestinal cells. Cultured cells were incubated for 24 h with the vehicle (DMSO; 0.1% v/v) and tested MICT in the presence or absence of TCDD (10 nM). RT-PCR determined the level of CYP1A1 mRNA, and the data were normalized per GAPDH mRNA level. […] (A,B) Experiments in three consecutive passages of human colon adenocarcinoma cell line LS180 in the absence (A) and the presence (B) of 10 nM TCDD. The bar graphs show the percentage of maximal induction attained by TCDD and are expressed as the mean ± SD. (C) Experiments in three consecutive passages of wild-type (AhR^+/^+) and AhR-knockout (AhR^−/^−) HT-29 cells. […] (D) Primary human hepatocytes from three different donors (LH79, Hep2201020, and Hep2201021).
# Total RNA was isolated using TRI Reagent® (Sigma Aldrich, Prague, Czech Republic). cDNA was synthesized using M-MuLV reverse transcriptase (New England Biolabs, Ipswich, MA, USA). The reverse transcription was performed at 42 °C for 60 min using Random Primers 6 (New England Biolabs, Ipswich, MA, USA) and diluted in a 1:4 ratio by PCR-grade water. The quantitative reverse transcriptase-polymerase chain reaction (qRT-PCR) was performed on the Lightcycler 480 II using the LightCycler ® 480 Probes Master (Roche Diagnostic Corporation, Prague, Czech Republic). The levels of CYP1A1 and GAPDH mRNAs were determined using the Universal Probe Library probes (UPL; Roche Diagnostic Corporation, Prague, Czech Republic) in combination with specific primers, using a protocol described elsewhere. All measurements were performed in triplicates, and the gene expression was normalized to glyceraldehyde-3-phosphate dehydrogenase (GAPDH) as a house-keeping gene. The data were processed using the delta-delta Ct method and expressed as a fold induction over the negative control (DMSO) or as a percentage of the positive control (maximal induction by TCDD).
# [4] = LS180 cells co-incubated with TCDD (10 nM), 24 h
# T1 sequence (P35869 11-848): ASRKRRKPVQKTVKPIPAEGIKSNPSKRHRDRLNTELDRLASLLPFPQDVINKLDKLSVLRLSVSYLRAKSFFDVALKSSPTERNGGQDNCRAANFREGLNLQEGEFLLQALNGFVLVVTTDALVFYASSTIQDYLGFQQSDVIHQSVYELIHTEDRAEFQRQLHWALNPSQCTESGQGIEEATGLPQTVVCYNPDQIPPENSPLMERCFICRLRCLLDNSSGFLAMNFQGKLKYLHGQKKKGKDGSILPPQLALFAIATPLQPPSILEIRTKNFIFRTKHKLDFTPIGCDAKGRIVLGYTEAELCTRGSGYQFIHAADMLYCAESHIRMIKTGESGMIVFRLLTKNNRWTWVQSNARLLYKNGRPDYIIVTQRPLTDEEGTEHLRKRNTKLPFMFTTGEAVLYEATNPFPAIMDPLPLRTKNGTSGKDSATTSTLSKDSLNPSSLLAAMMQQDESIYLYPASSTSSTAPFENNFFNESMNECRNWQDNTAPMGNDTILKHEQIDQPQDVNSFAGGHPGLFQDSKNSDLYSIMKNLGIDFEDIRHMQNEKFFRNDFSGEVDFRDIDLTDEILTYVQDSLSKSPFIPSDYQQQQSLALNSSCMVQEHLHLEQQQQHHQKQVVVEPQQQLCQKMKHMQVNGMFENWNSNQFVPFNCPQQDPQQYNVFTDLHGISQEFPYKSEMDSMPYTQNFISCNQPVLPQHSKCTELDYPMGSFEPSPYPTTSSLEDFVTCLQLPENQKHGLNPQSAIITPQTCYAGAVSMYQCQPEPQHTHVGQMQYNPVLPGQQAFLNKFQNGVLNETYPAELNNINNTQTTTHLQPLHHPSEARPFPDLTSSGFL
# T1 sequence (P27540 whole entry partner): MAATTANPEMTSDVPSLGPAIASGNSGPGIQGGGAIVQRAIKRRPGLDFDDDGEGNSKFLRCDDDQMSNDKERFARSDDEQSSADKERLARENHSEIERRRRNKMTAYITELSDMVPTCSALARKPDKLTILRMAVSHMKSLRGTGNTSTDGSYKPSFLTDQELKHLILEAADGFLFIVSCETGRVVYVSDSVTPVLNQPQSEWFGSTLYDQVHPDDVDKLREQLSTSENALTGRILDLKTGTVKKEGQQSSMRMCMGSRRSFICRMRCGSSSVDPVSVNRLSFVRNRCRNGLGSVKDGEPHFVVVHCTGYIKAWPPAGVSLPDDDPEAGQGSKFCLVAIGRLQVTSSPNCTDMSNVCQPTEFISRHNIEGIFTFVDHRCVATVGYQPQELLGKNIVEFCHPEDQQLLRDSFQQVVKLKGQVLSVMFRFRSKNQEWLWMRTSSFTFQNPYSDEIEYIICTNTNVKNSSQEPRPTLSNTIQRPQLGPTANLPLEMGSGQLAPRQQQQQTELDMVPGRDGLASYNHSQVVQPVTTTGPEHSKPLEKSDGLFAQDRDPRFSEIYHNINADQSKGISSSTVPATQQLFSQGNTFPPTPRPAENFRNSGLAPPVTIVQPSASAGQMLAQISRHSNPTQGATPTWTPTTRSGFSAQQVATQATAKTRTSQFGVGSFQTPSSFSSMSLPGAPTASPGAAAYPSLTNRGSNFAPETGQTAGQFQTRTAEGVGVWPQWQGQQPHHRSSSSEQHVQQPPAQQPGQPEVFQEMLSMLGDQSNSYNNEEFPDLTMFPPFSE
Structure (SMILES),formation of AhR-ARNT heterodimer [1],Affinity (IC50) [2],antagonistic effects on CYP1A1 mRNA [3],induction of CYP1A1 mRNA [3],"antagonistic effects on CYP1A1 mRNA [3, 4]","induction of CYP1A1 mRNA ([3]; LS180 cells, 24 h)"
"c1ccc2[nH]ccc2c1 [IND, indole]",induce a formation of AhR-ARNT heterodimer,very low,antagonistic effects were observed primarily,strong induction,–,–
"O=C(O)/C=C/c1c[nH]c2ccccc12 [IAC, indole-3-acrylate]",induce a formation of AhR-ARNT heterodimer,very low,–,–,to a lesser extent,strong induction
"NC(=O)Cc1c[nH]c2ccccc12 [IAD, indole-3-acetamide]",induce a formation of AhR-ARNT heterodimer,low,–,–,–,strong induction
"Cc1c[nH]c2ccccc12 [3MI, skatole]",induce a formation of AhR-ARNT heterodimer,low,–,–,antagonistic effects were observed primarily,strong induction
"O=C(O)C(=O)Cc1c[nH]c2ccccc12 [IPY, indole-3-pyruvate]",induce a formation of AhR-ARNT heterodimer,low,–,–,antagonistic effects were observed primarily,strong induction
"OCCc1c[nH]c2ccccc12 [IET, indole-3-ethanol]",–,very low,–,–,–,–
"O=Cc1c[nH]c2ccccc12 [IA, indole-3-aldehyde]",–,no,–,–,antagonistic effects were observed primarily,–
"NCCc1c[nH]c2ccccc12 [TA, tryptamine]",induce a formation of AhR-ARNT heterodimer,no,–,–,–,strong induction
"O=C(O)C(O)Cc1c[nH]c2ccccc12 (stereo not drawn) [ILA, indole-3-lactate]",–,no,–,–,to a lesser extent,–
